The structures appear in SMILES notation. Toxic doses and inconclusive results are not listed. *1 amine or outer side, *2 acyl side, *3 side chain or, on linkers, in order; H or OH if unused. Where a SMILES comes first, the peptide text is derived from it. Bridges are numbered along the chain shown (N, C = ends). Roman numbers before positions name the chains, in order. [ ]: non-standard residue; d: D form. Actinocin(9to1) = Cc1c2oc3c(C)ccc(C(=O)[*:1])c3nc-2c(C(=O)[*:2])c(N)c1=O; aThr = C[C@H](O)[C@H](N)C(=O)O; NMeV = CN[C@H](C(=O)O)C(C)C; Sar = CNCC(=O)O

These results are taken from PubChem BioAssay AID210 (DTP/NCI, 2004).

For this assay, the system named is CD2F1 mice, ip Colon 26 adenocarcinoma, median survival T/C. Description: NCI In Vivo Anticancer Drug Screen. Data for tumor model Colon 26 Adenocarcinoma (intraperitoneal) in CD2F1 (CDF1) mice. The conditions noted are these: endpoint: median survival time, higher = longer survival. The procedure: The antitumor activity of compounds was measured in mice bearing transplantable tumors. Survival or tumor size were measured and the results are expressed as the measurement made in the treated group (T) divided by the measurement made in the vehicle treated control group (C). The tumor model used in this assay is Colon 26 Adenocarcinoma (intraperitoneal) in CD2F1 (CDF1) mice

Setting [1] is: dose: 5.4 mg/kg/injection, schedule: Q04DX003 (ip), vehicle: water.
The mark [2] stands for this setting: dose: 15.0 mg/kg/injection, schedule: Q04DX003 (ip), vehicle: water.
Setting [3] is: dose: 12.5 mg/kg/injection, schedule: Q04DX003 (ip), vehicle: saline with Tween-80.
[4] abbreviates: dose: 25.0 mg/kg/injection, schedule: Q04DX003 (ip), vehicle: saline with Tween-80.
Where [5] appears, read: dose: 200.0 mg/kg/injection, schedule: Q04DX003 (ip), vehicle: saline with Tween-80.

On to `COc1cccc2c1C(=O)c1c(O)c3c(c(O)c1C2=O)C[C@@](O)(C(C)=O)C[C@@H]3OC1CC(N(C)C)C(O)C(C)O1` (stereo partly specified), for which the T/C by setting is: (dose: 4.5 mg/kg/injection, schedule: Q07DX002 (iv), vehicle: saline) 109 % of control; under setting [1], 119 % of control; (dose: 7.0 mg/kg/injection, schedule: Q07DX002 (iv), vehicle: saline) 114 % of control; (dose: 11.0 mg/kg/injection, schedule: Q07DX002 (iv), vehicle: saline) 113 % of control; under setting [2], 88 % of control; (dose: 18.0 mg/kg/injection, schedule: Q07DX002 (iv), vehicle: saline) 109 % of control. Further, the T/C (dose: 27.0 mg/kg/injection, schedule: Q07DX002 (iv), vehicle: saline) was 108 % of control and the T/C (dose: 41.0 mg/kg/injection, schedule: Q07DX002 (iv), vehicle: saline) was 94 % of control.
Take `C/C=C(\C)C(=O)OC1C(C)C2(O)C(C=C(CO)CC3(O)C(=O)C(C)=CC32)C2C(C)(C)C12OC(=O)CCCCCCCCC` (stereo unspecified): the T/C is 93 % of control (dose: 0.03 mg/kg/injection, schedule: Q04DX003 (ip), vehicle: saline + alcohol); 86 % of control (dose: 0.06 mg/kg/injection, schedule: Q04DX003 (ip), vehicle: saline + alcohol); 90 % of control (dose: 0.13 mg/kg/injection, schedule: Q04DX003 (ip), vehicle: saline + alcohol); 86 % of control (dose: 0.25 mg/kg/injection, schedule: Q04DX003 (ip), vehicle: saline + alcohol).
With `Nc1ncnc2c1ncn2C1OC(CO)CC1O` (stereo unspecified), the T/C by setting is: (dose: 37.5 mg/kg/injection, schedule: Q04DX002 (ip), vehicle: Klucel (hydroxypropylcellulose) (HPC)) 101 % of control; (dose: 75.0 mg/kg/injection, schedule: Q04DX002 (ip), vehicle: Klucel (hydroxypropylcellulose) (HPC)) 110 % of control; (dose: 150.0 mg/kg/injection, schedule: Q04DX002 (ip), vehicle: Klucel (hydroxypropylcellulose) (HPC)) 93 % of control.
Regarding `Cc1c2ccncc2c(C)c2c1[nH]c1ccccc12`, the T/C reads like this: (dose: 12.5 mg/kg/injection, schedule: Q04DX002 (ip), vehicle: Klucel (hydroxypropylcellulose) (HPC)) 158 % of control; (dose: 12.5 mg/kg/injection, schedule: Q04DX002 (ip), vehicle: saline) 122 % of control; (dose: 12.5 mg/kg/injection, schedule: Q04DX003 (ip), vehicle: Klucel (hydroxypropylcellulose) (HPC)) 186 % of control; under setting [3], 112 % of control; (dose: 25.0 mg/kg/injection, schedule: Q04DX002 (ip), vehicle: saline) 156 % of control; (dose: 25.0 mg/kg/injection, schedule: Q04DX003 (ip), vehicle: Klucel (hydroxypropylcellulose) (HPC)) 263 % of control. For the same molecule, the T/C is 152 % of control under setting [4]; 158 % of control (dose: 50.0 mg/kg/injection, schedule: Q04DX002 (ip), vehicle: Klucel (hydroxypropylcellulose) (HPC)); 242 % of control (dose: 50.0 mg/kg/injection, schedule: Q04DX003 (ip), vehicle: Klucel (hydroxypropylcellulose) (HPC)); 170 % of control (dose: 100.0 mg/kg/injection, schedule: Q04DX002 (ip), vehicle: Klucel (hydroxypropylcellulose) (HPC)); 150 % of control (dose: 100.0 mg/kg/injection, schedule: Q04DX002 (ip), vehicle: saline); 242 % of control (dose: 100.0 mg/kg/injection, schedule: Q04DX003 (ip), vehicle: Klucel (hydroxypropylcellulose) (HPC)). Moreover, the T/C is, setting by setting: (dose: 100.0 mg/kg/injection, schedule: Q04DX003 (ip), vehicle: saline with Tween-80) 165 % of control; (dose: 200.0 mg/kg/injection, schedule: Q04DX002 (ip), vehicle: saline) 156 % of control; under setting [5], 214 % of control.
For `C=C/C(C)=C/[C@H](C)C(=O)C[C@H](O)CC1CC(=O)NC(=O)C1`, the T/C runs as follows: (dose: 6.25 mg/kg/injection, schedule: Q04DX003 (ip), vehicle: saline with Tween-80) 97 % of control; under setting [3], 100 % of control; under setting [4], 108 % of control; (dose: 50.0 mg/kg/injection, schedule: Q04DX003 (ip), vehicle: saline with Tween-80) 109 % of control; under setting [5], 121 % of control.
In the case of `CCCCCCCCCCCCCCCCS(=O)CC(O)COC(=O)c1ccc(C(=O)OCC(O)CS(=O)CCCCCCCCCCCCCCCC)cc1` (stereo unspecified), the T/C reads like this: (dose: 12.5 mg/kg/injection, schedule: Q04DX002 (ip), vehicle: saline + alcohol) 109 % of control; (dose: 25.0 mg/kg/injection, schedule: Q04DX002 (ip), vehicle: saline + alcohol) 100 % of control; (dose: 50.0 mg/kg/injection, schedule: Q04DX002 (ip), vehicle: saline + alcohol) 91 % of control; (dose: 100.0 mg/kg/injection, schedule: Q04DX002 (ip), vehicle: saline + alcohol) 91 % of control.
Consider `COc1cccc2c1C(=O)c1c(O)c3c(c(O)c1C2=O)C[C@@](O)(C(=O)CO)C[C@@H]3OC1CC([N+](C)(C)C)C(O)C(C)O1` (stereo partly specified), for which the T/C by setting is: under setting [1], 102 % of control; (dose: 9.0 mg/kg/injection, schedule: Q04DX003 (ip), vehicle: water) 103 % of control; under setting [2], 96 % of control; (dose: 25.0 mg/kg/injection, schedule: Q04DX003 (ip), vehicle: water) 115 % of control.
In the case of `O=[N+]([O-])O.[Ga]`, the T/C (dose: 12.5 mg/kg/injection, schedule: Q01DX005 (ip), vehicle: saline) was 97 % of control; the T/C (dose: 12.5 mg/kg/injection, schedule: Q04DX003 (ip), vehicle: saline) was 103 % of control; the T/C (dose: 25.0 mg/kg/injection, schedule: Q01DX005 (ip), vehicle: saline) was 96 % of control; the T/C (dose: 25.0 mg/kg/injection, schedule: Q04DX003 (ip), vehicle: saline) is 108 % of control; the T/C (dose: 50.0 mg/kg/injection, schedule: Q01DX005 (ip), vehicle: saline) was 87 % of control; the T/C (dose: 50.0 mg/kg/injection, schedule: Q04DX003 (ip), vehicle: saline) was 106 % of control. For the same molecule, the T/C (dose: 100.0 mg/kg/injection, schedule: Q04DX003 (ip), vehicle: saline) is 87 % of control.
On to `Cc1c2oc3c(C)ccc(C(=O)N[C@@H]4C(=O)N[C@H](C(C)C)C(=O)N5CCC[C@H]5C(=O)N(C)CC(=O)N(C)[C@@H](C(C)C)C(=O)O[C@H]4C)c3nc-2c(C(=O)N[C@@H]2C(=O)N[C@H](C(C)C)C(=O)N3CCC[C@H]3C(=O)N(C)CC(=O)N(C)[C@@H](C(C)C)C(=O)O[C@H]2C)c(N)c1=O` (I: [aThr][dV]P[Sar][NMeV] / II: [aThr][dV]P[Sar][NMeV]; ester I:1-I:C, II:1-II:C; linker I:N-II:N via Actinocin(9to1)), for which the T/C reads like this: (dose: 0.13 mg/kg/injection, schedule: Q01DX001 (ip), vehicle: saline) 92 % of control; (dose: 0.25 mg/kg/injection, schedule: Q01DX001 (ip), vehicle: saline) 99 % of control; (dose: 0.5 mg/kg/injection, schedule: Q01DX001 (ip), vehicle: saline) 110 % of control; (dose: 1.0 mg/kg/injection, schedule: Q01DX001 (ip), vehicle: saline) 107 % of control; (dose: 28.0 micrograms/kg/injection, schedule: Q04DX003 (ip), vehicle: saline) 122 % of control; (dose: 125.0 micrograms/kg/injection, schedule: Q01DX001 (ip), vehicle: saline + alcohol) 113 % of control. In addition, the T/C by setting is: (dose: 180.0 micrograms/kg/injection, schedule: Q04DX003 (ip), vehicle: saline + alcohol) 123 % of control; (dose: 216.0 micrograms/kg/injection, schedule: Q04DX003 (ip), vehicle: saline) 156 % of control; (dose: 250.0 micrograms/kg/injection, schedule: Q01DX001 (ip), vehicle: saline + alcohol) 109 % of control; (dose: 500.0 micrograms/kg/injection, schedule: Q01DX001 (ip), vehicle: saline + alcohol) 113 % of control; (dose: 500.0 micrograms/kg/injection, schedule: Q04DX003 (ip), vehicle: saline + alcohol) 153 % of control.
